The values below come from US20060008491A1, “Eremophilone and eremophilone derivatives for pest control” (priority 2002, published 2006).

This experiment has as its system Coptotermes acinaciformis. It is filed as in vivo. The conditions noted are these: HPLC fractions of steam distilled oil.

Description: A number of samples were assessed for termiticidal activity. The steam distilled oil product was separated into thirty fractions using reverse phase preparative HPLC, methanol:water (80:20). Fractions were re-analysed by GC-MS and recombined to provide eight fractions. Three fractions contained pure components, the other fractions contained mixtures of minor components of the oil. Six fractions together with the whole oil distillate, and the methanol and hexane extracts were tested on the workers of the termites Nasutitermes walkeri and Coptotermes acinaciformis as follows.
Twenty uniform termite workers were transferred to 90 mm diam. petri dishes lined with the same diameter moistened filter paper (Whatman No 2). […]
A 5 ml aliquot was applied to each petri dish with a Potter precision spray tower as described by Herron et al (995). The average weight of the solution sprayed on each dish was calculated to be 3.95 mg/cm^2. […] Mortality was normally recorded 24 h after treatment. […] Probit analysis was carried out for dose-mortality data and heterogeneity of regressions was determined by the Pearson chi-squared characteristic.

Consider `C=C(C)[C@@H]1CC(=O)C2=CCC[C@H](C)[C@@]2(C)C1` [EM-1, Eremophilone], for which the “termiticidal activity” value was “significant termiticidal activity”.
